We go through two compounds from ChEMBL document CHEMBL3886877, “Spiro ring compound as hepatitis C virus (HCV) inhibitor and uses thereof” (2016).

This experiment can be described thus: Luciferase Assay: The Huh-7 cells transfected with HCV replicons system were seeded into 96-well plates (8,000 cells in 125 μL/well) respectively; each test compound was diluted to desired concentration using 5-fold serial dilutions protocol, 10 doses in duplicate, and added to wells with POD™ 810 Plate Assembler. […] In this paper, experiments were repeated twice and set the holes without compounds as negative control.

Compound `COC(=O)N[C@H](C(=O)N1CCC[C@H]1c1ncc(-c2ccc(-c3ccc(-c4ccc5nc([C@@H]6CCCN6C(=O)[C@@H](NC(=O)OC)C(C)C)[nH]c(=O)c5c4)c4c3CC3(CCCC3)C4)cc2)[nH]1)C(C)C` came in with an EC50 of 0.087 nM.
The compound `COC(=O)N[C@H](C(=O)N1C[C@@H](C)C[C@H]1[n+]1c[nH]c(-c2ccc(-c3ccc(-c4ccc5nc([C@@H]6C[C@H](C)CN6C(=O)[C@@H](NC(=O)OC)C(C)C)[nH]c(=O)c5c4)c4c3CC3(CCCC3)C4)cc2)c1)C(C)C` had a concentration for a half-maximal effect (EC50) (Huh-7) of 0.006 nM.
